Assay results: patent publication US20180228795A1, “COMBINATION THERAPY FOR CANCER” (Eli Lilly and Company, priority 2015, published 2018)

Columns and labels:
Type in all cases: in vivo
PDX TNBC Model ST1077 = experiment: Antitumor effects in PDX mouse model of TNBC; conditions: A 10 mg/kg SC BID 3 days on/4 off ×4, B 7.5 mg/kg PO BID×28, versus vehicle
Description: (§1) Establish PDX tumor models from viable human tumor tissue and serially passage in immunocompromised female mice a limited number of times. Using tumor fragments harvested from donor host animals, perform unilateral subcutaneous implants from a specific passage of the PDX tumor model on the flanks of the experimental animals. When tumor volumes reach approximately 150-250 mm^3 in size, randomize the animals by treatment arm by randomization techniques well known in the art and place into their respective treatment groups using 1 animal per treatment group (3 animals in an untreated group). Formulate CHK1 inhibitor, 5-(5-(2-(3-aminopropoxy)-6-methoxyphenyl)-1H-pyrazol-3-ylamino)pyrazine-2-carbonitrile methanesulfonate hydrate, (Compound A) every 14 days in 20% captisol (dissolved in water) and administer subcutaneously twice daily at a dose of 10 mg/kg on days 1/2/3 of a weekly cycle for 4 weeks (SC, BID [3 days on/4 off]×4). Formulate the PI3K/mTOR dual inhibitor, 8-[5-(1-hydroxy-1-methylethyl)pyridin-3-yl]-1-[(2S)-2-methoxypropyl]-3-methyl-1,3-dihydro-2H-imidazo[4,5-c]quinolin-2-one, (Compound B) weekly in 1% (HEC)/0.25% Tween 80 (Polysorbate 80)/0.05% Dow-Corning Antifoam 1510-US and administer by oral gavage twice-daily for 28 days (PO, BID×28) at a dose of 7.5 mg/kg. Dose combination treatment animals with both compounds according to the schedule described above for monotherapy, and dose vehicle treatment animals with vehicle according to the schedule for Compound B.
(§2) Test the combination of Compound A and Compound B, as well as their respective monotherapies, in 40 PDX models (Table 1) of TNBC. Assess antitumor efficacy of the treatment groups by measuring tumor volume via caliper measurements twice a week during the course of the study. Measure body weight twice weekly during the course of the study as a general indicator of tolerability.
(§3) Capture tumor size and body weight twice per week. Estimate tumor volume (V) by using the formula: V=(π/6)×L×W^2 where L=larger of measured diameter and W=smaller perpendicular diameter. Calculate relative tumor volume using the tumor volume measurement taken nearest to the last day of dosing for each animal (T), divided by the baseline tumor volume for that animal (T0), which is the volume recorded on or just prior to the first day of dosing, Y=T/T0. Calculate % ΔT/ΔC values using the formula % ΔT/ΔC=100(YT−1)/(YC−1), whereby YT or YC=geometric mean relative volume of the compound treated group or the control group, respectively. Tumor growth inhibition is observed in those instances where the calculated values for % ΔT/ΔC are less than 100% whereby greater inhibition results in smaller % ΔT/ΔC values. If ΔT<0, then a tumor regression value is calculated instead of % ΔT/ΔC whereby % Regression=100(YT−1). Note that negative values indicate regression. We collectively refer to % ΔT/ΔC and % Regression as % Response.
(§4) Examine relative tumor volume (final volume divided by baseline volume) on the last day of treatment or the last day on which data from all three treatment groups and vehicle is available, if it is earlier than the last day of treatment and at least 14 days after baseline. Expected additive relative volume is determined using the Bliss method (Bliss, C. I., Ann Appl Biol, 1939; 26(3):585-615). Specifically, denoting Y=relative volume, YExp=(Y1*Y2)/YV, where YExp=expected additive relative volume, Y1 and Y2 are the relative volumes in the single agent groups (Compound A and Compound B), and YV is the relative volume in the vehicle group. A range of additivity is defined around the expected additive relative volume via upper and lower limits as follows:
(§5) Yupper=max(2*YExp,YExp+0.2)
(§6) Ylower=min(YExp/2,YExp−0.2)
(§7) The upper limit of the range is the larger of 2-fold above or 20% above the expected additive relative volume, and the lower limit is the smaller of 2-fold below or 20% below the expected additive relative volume. […]

PDX TNBC Model CTG-0018 = experiment: Antitumor effects in PDX mouse model of TNBC; conditions: PDX model CTG-0018; A 10 mg/kg SC BID 3 days on/4 off ×4; B 7.5 mg/kg PO BID×28; versus vehicle
Description: as §1, §2, §3, §4, §5, §6, §7

PDX TNBC Model ST518 = experiment: Antitumor effects in PDX mouse model of TNBC; conditions: A 10 mg/kg SC BID 3 days on/4 off ×4, B 7.5 mg/kg PO BID×28, versus vehicle
Description: as §1, §2, §3, §4, §5, §6, §7

PDX TNBC Model ST069 = experiment: Antitumor effects in PDX mouse model of TNBC; conditions: A 10 mg/kg SC BID 3 days on/4 off ×4, B 7.5 mg/kg PO BID×28, versus vehicle
Description: as §1, §2, §3, §4, §5, §6, §7

PDX TNBC Model CTG-0888 = experiment: Antitumor effects in PDX mouse model of TNBC; conditions: PDX model CTG-0888; A 10 mg/kg SC BID 3 days on/4 off ×4; B 7.5 mg/kg PO BID×28; versus vehicle
Description: as §1, §2, §3, §4, §5, §6, §7

PDX TNBC Model CTG-0437 = experiment: Antitumor effects in PDX mouse model of TNBC; conditions: PDX model CTG-0437; A 10 mg/kg SC BID 3 days on/4 off ×4; B 7.5 mg/kg PO BID×28; versus vehicle
Description: as §1, §2, §3, §4, §5, §6, §7

PDX TNBC Model CTG-1019 = experiment: Antitumor effects in PDX mouse model of TNBC; conditions: PDX model CTG-1019; A 10 mg/kg SC BID 3 days on/4 off ×4; B 7.5 mg/kg PO BID×28; versus vehicle
Description: as §1, §2, §3, §4, §5, §6, §7

PDX TNBC Model CTG-0052 = experiment: Antitumor effects in PDX mouse model of TNBC; conditions: PDX model CTG-0052; A 10 mg/kg SC BID 3 days on/4 off ×4; B 7.5 mg/kg PO BID×28; versus vehicle
Description: as §1, §2, §3, §4, §5, §6, §7

PDX TNBC Model CTG-1153 = experiment: Antitumor effects in PDX mouse model of TNBC; conditions: PDX model CTG-1153; A 10 mg/kg SC BID 3 days on/4 off ×4; B 7.5 mg/kg PO BID×28; versus vehicle
Description: as §1, §2, §3, §4, §5, §6, §7

PDX TNBC Model MAXF 449 = experiment: Antitumor effects in PDX mouse model of TNBC; conditions: PDX model MAXF 449; A 10 mg/kg SC BID 3 days on/4 off ×4; B 7.5 mg/kg PO BID×28; versus vehicle
Description: as §1, §2, §3, §4, §5, §6, §7

PDX TNBC Model CTG-1151 = experiment: Antitumor effects in PDX mouse model of TNBC; conditions: PDX model CTG-1151; A 10 mg/kg SC BID 3 days on/4 off ×4; B 7.5 mg/kg PO BID×28; versus vehicle
Description: as §1, §2, §3, §4, §5, §6, §7

PDX TNBC Model ST231 = experiment: Antitumor effects in PDX mouse model of TNBC; conditions: A 10 mg/kg SC BID 3 days on/4 off ×4, B 7.5 mg/kg PO BID×28, versus vehicle
Description: as §1, §2, §3, §4, §5, §6, §7

PDX mouse models of TNBC = experiment: Antitumor effects across the panel of 40 PDX mouse models of TNBC; conditions: range across PDX TNBC models of Table 4
Description: Establish PDX tumor models from viable human tumor tissue and serially passage in immunocompromised female mice a limited number of times. Using tumor fragments harvested from donor host animals, perform unilateral subcutaneous implants from a specific passage of the PDX tumor model on the flanks of the experimental animals. When tumor volumes reach approximately 150-250 mm^3 in size, randomize the animals by treatment arm by randomization techniques well known in the art and place into their respective treatment groups using 1 animal per treatment group (3 animals in an untreated group). […]
as §3, with “Calculate % ΔT/ΔC values using the formula % ΔT/ΔC=100(YT−1)/(YC−1), whereby YT or YC=geometric mean relative volume of the compound treated group or the control group, respectively.” left out, “Note that negative values indicate regression. We collectively refer to % ΔT/ΔC and % Regression as % Response.” left out

COc1cccc(OCCCN)c1-c1cc(Nc2cnc(C#N)cn2)n[nH]1.CS(=O)(=O)O [Compound A, 5-(5-(2-(3-aminopropoxy)-6-methoxyphenyl)-1H-pyrazol-3-ylamino)pyrazine-2-carbonitrile methanesulfonate hydrate]
% Rsp. (% ΔT/ΔC or % Regression) (PDX TNBC Model ST1077): 0.0% | % Rsp. (% ΔT/ΔC or % Regression) (PDX TNBC Model CTG-0018): −57.6% | % Rsp. (% ΔT/ΔC or % Regression) (PDX TNBC Model ST518): −23.4% | % Rsp. (% ΔT/ΔC or % Regression) (PDX TNBC Model ST069): −79.6% | % Rsp. (% ΔT/ΔC or % Regression) (PDX TNBC Model CTG-0888): 15.0% | % Rsp. (% ΔT/ΔC or % Regression) (PDX TNBC Model CTG-0437): −87.5% | % Rsp. (% ΔT/ΔC or % Regression) (PDX TNBC Model CTG-1019): 86.6% | % Rsp. (% ΔT/ΔC or % Regression) (PDX TNBC Model CTG-0052): 41.3% | % Rsp. (% ΔT/ΔC or % Regression) (PDX TNBC Model CTG-1153): −23.6% | % Rsp. (% ΔT/ΔC or % Regression) (PDX TNBC Model MAXF 449): −100.0% | % Rsp. (% ΔT/ΔC or % Regression) (PDX TNBC Model CTG-1151): −84.6% | % Rsp. (% ΔT/ΔC or % Regression) (PDX TNBC Model ST231): −74.6% | efficacy values, % response, range over the models (PDX mouse models of TNBC): 126.1% to −100

CO[C@@H](C)Cn1c(=O)n(C)c2cnc3ccc(-c4cncc(C(C)(C)O)c4)cc3c21 [Compound B, 8-[5-(1-hydroxy-1-methylethyl)pyridin-3-yl]-1-[(2S)-2-methoxypropyl]-3-methyl-1,3-dihydro-2H-imidazo[4,5-c]quinolin-2-one]
% Rsp. (% ΔT/ΔC or % Regression) (PDX TNBC Model ST1077): 9.1% | % Rsp. (% ΔT/ΔC or % Regression) (PDX TNBC Model CTG-0018): 86.0% | % Rsp. (% ΔT/ΔC or % Regression) (PDX TNBC Model ST518): 66.5% | % Rsp. (% ΔT/ΔC or % Regression) (PDX TNBC Model ST069): 112.0% | % Rsp. (% ΔT/ΔC or % Regression) (PDX TNBC Model CTG-0888): 21.2% | % Rsp. (% ΔT/ΔC or % Regression) (PDX TNBC Model CTG-0437): 80.3% | % Rsp. (% ΔT/ΔC or % Regression) (PDX TNBC Model CTG-1019): 158.0% | % Rsp. (% ΔT/ΔC or % Regression) (PDX TNBC Model CTG-0052): 8.6% | % Rsp. (% ΔT/ΔC or % Regression) (PDX TNBC Model CTG-1153): 86.5% | % Rsp. (% ΔT/ΔC or % Regression) (PDX TNBC Model MAXF 449): 34.7% | % Rsp. (% ΔT/ΔC or % Regression) (PDX TNBC Model CTG-1151): 92.5% | % Rsp. (% ΔT/ΔC or % Regression) (PDX TNBC Model ST231): 76.8% | efficacy values, % response, range over the models (PDX mouse models of TNBC): 163% to −31
